Where “and” joins values, the source holds several entries; their conditions need not be identical. Equal values may be shown once. Where a name gives a salt, the structure may show the parent alone. Read-outs that look alike come from different tables or passages of the source.
Tests used:
β-adrenoreceptor [1] = assay: Heart rate (pulse) increase, i.v., anesthetized dogs; type: in vivo, dog (male hybrid adult dogs); conditions: for Heart Rate (HR) ED25 beats/min, Compound: pulse increase; for Heart Rate (HR) Relative Potency: ED25 compared to isoproterenol as standard compound
Experimental: (§1) The stimulating activity of the compounds of this invention on β-adrenoreceptor was determined as follows: Male hydrid adult dogs, weighing 10 to 15 kg, were anesthesized with sodium pentobartital administered intravenously at a level of 30 mg/kg of body weight. Each of the anesthesized dogs was secured on its back and a cannula was inserted into the trachea.
(§2) In the above procedure, histamine was employed as a bronchoconstrictor at a dosage level of 10 μg/kg of body weight, and an aqueous solution containing each of the test compounds and controls shown in Table 1 below was then administered to each of the anesthesized dogs through the femoral vein at the various dosage levels as shown in Table 1 below 1 minute before the administration of the histamine. Sodium pentobartital was infused during the procedure at a dosage level of 4 mg/kg of body weight/hr using an automatic injector in order to inhibit spontaneous respiration and to maintain the anesthetic condition constant over the test period.
(§3) ED50 values were calculated using a Dose Response curve. At the same time the pulse was measured through a transducer and the value was recorded on a polygraph.

β-adrenoreceptor [2] = molecular target: T1, β-adrenoreceptor (Canis lupus familiaris, UniProt P54833); assay: Inhibition of histamine-induced bronchial resistance increase (bronchospasm), i.v., Konzett-Rossler method, anesthetized dogs; type: in vivo, dog (male hybrid adult dogs); conditions: for Bronchial Resistance (BR) Relative Potency: ED50 compared to isoproterenol as standard compound; for ED50: dog, iv
T1 construct: from tissue; host or cells: airways of anesthetized dogs, in vivo
T1 sequence (P54833 whole entry): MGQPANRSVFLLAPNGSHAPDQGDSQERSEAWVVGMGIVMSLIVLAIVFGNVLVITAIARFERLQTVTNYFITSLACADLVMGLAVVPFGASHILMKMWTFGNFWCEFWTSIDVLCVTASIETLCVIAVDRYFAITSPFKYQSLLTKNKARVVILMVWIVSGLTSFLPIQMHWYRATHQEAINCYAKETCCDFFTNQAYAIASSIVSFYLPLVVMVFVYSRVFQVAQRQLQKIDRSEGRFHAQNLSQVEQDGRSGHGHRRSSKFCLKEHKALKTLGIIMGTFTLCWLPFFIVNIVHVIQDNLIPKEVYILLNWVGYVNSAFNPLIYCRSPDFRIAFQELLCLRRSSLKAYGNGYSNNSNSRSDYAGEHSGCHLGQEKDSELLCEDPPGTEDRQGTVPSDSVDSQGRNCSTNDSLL
Experimental: as §1, §2, §3

β2-receptor = assay: Separation of bronchial resistance effect from heart rate effect (β2 selectivity), anesthetized dogs; type: in vivo, dog (male hybrid adult dogs); conditions: i.v.
Experimental: (§4) The stimulating activity of the compounds of this invention on β-adrenoreceptor was determined as follows: Male hydrid adult dogs, weighing 10 to 15 kg, were anesthesized with sodium pentobartital administered intravenously at a level of 30 mg/kg of body weight. Each of the anesthesized dogs was secured on its back and a cannula was inserted into the trachea. Artificial respiration was conducted using a device according to the Konzett-Rossler method (Konzett H. & Rossler R., "Versuchsanordnug zu Untersuchungen an der Bronchial Moskolatur", Arch. Exp. Path., Pharmack, 195, 71-74, 27-40 (1940). The volume of the air which overflowed at the time of inhalation was measured through a pneumotachometer to determine the bronchial resistance and the values obtained were recorded on a polygraph.
as §2, §3

[3] = Acute toxicity by intravenous administration; conditions: rat, in vivo, i.v., male rats (dd strain, 18 to 22 g), fasted 12 hours, read-out: LD50 (50% lethal dose)
Experimental: Further, the acute toxicity by intravenous administration was determined with respect to the test compounds shown in Table 2 below using 5 to 6 groups each containing 10 male rats (dd strain; body weight: 18 to 22 g) which had been fasted for 12 hours prior to the test. The LD50 (50% lethal dose) results are as follows.

β-adrenoreceptor [4] = assay: Persistence (duration) of inhibition of histamine-induced bronchospasm, anesthetized dogs; type: in vivo, dog; conditions: FIGURE, i.v. 1 μg/kg, versus Compound (2)
Experimental: as §4, with “[…],” for “Pharmack,”, “polygraph. […] Sodium pentobartital was infused during the procedure at a dosage level of 4 mg/kg of body weight/hr using an automatic injector in order to inhibit spontaneous respiration and to maintain the anesthetic condition constant over the test period. The persistance time was determined by administering to a subject a test compound in such a dose that a histamine-induced bronchospasm is inhibited completely (100%), in the same manner as described above and observing the persistance of the activity of the test compound with the lapse of time.” for “polygraph.”

[5] = i.v. 1 minute before histamine 10 μg/kg, anesthetized dogs, read-out: Bronchial Resistance (BR) ED50, Compound
[6] = read-out: Bronchial Resistance (BR) ED50, Compound

SMILES | Heart Rate (HR) ED25 beats/min, Compound (β-adrenoreceptor [1]; i.v., anesthetized dogs) [µg/kg] | Heart Rate (HR) Relative Potency (β-adrenoreceptor [1]) | Bronchial Resistance (BR) Relative Potency (β-adrenoreceptor [2]) | ED50 (β-adrenoreceptor [2]; [5]) [µg/kg] | Separation Ratio HR(Relative Potency)/BR(Relative Potency) (β2-receptor) | LD50 [3] [µg/kg] | ED50 (β-adrenoreceptor [2]; [6]) [µg/kg] | duration of β-stimulation activity on histamine-induced bronchospasm (β-adrenoreceptor [4]) | Heart Rate (HR) ED25 beats/min, Isoproterenol (β-adrenoreceptor [1]; isoproterenol as standard compound for the compound of the same line, i.v., anesthetized dogs) | ED50 (β-adrenoreceptor [2]; read-out: Bronchial Resistance (BR) ED50, Isoproterenol, isoproterenol as standard compound for the compound of the same line, i.v., anesthetized dogs) [µg/kg] | Bronchial Resistance (BR) ED50, Compound (β-adrenoreceptor [2]; i.v. 1 minute before histamine 10 μg/kg, anesthetized dogs) [µg/kg]
CCC(NC(C)C)C(OC(=O)c1ccc(C)cc1)c1ccc(OC(=O)c2ccc(C)cc2)c2c1CCC(=O)N2 (stereo not shown) [(12), 8-(4-methylbenzoyloxy)-5-[(1-(4-methylbenzoyloxy)-2-isopropylaminobutyl]-3,4-dihydrocarbostyril hydrochloride] | 8.3 | 75.5 | 7.30 | 0.73 | 10.3 | 153000 |  |  |  |  | 
CCC(NC(C)C)C(OC(=O)C1CCCCC1)c1ccc(OC(=O)c2ccc(C)cc2)c2[nH]c(=O)ccc12.Cl (stereo not shown) [(13), 8-(4-methylbenzoyloxy)-5-(1-cyclohexylcarbonyloxy-2-isopropylaminobutyl)carbostyril hydrochloride] | 6.02 | 66.9 | 5.92 |  | 11.3 | 147000 | 0.71 |  |  |  | 
CCC(NCc1ccccc1)C(O)c1ccc(OC(=O)c2ccc(Cl)cc2)c2[nH]c(=O)ccc12.Cl (stereo not shown) [(11), 8-(4-chlorobenzoyloxy)-5-(1-hydroxy-2-benzylaminobutyl)carbostyril hydrochloride] | 4.2 | 46.7 | 6.50 |  | 7.2 |  | 0.91 |  |  |  | 
CCC(NC(C)C)C(O)c1ccc(OC(=O)CC(C)(C)C)c2[nH]c(=O)ccc12 (stereo not shown) [(6)] | 3.2 | 46.1 | 3.52 | 0.42 | 13.1 | 107000 |  |  |  |  | 
CCNC(CC)C(O)c1ccc(O)c2[nH]c(=O)ccc12.Cl (stereo not shown) [Compound (2), 8-hydroxy-5-(1-hydroxy-2-ethylaminobutyl)carbostyril hydrochloride, reference compound] | 3.6 | 40.0 | 3.47 |  | 11.5 |  | 0.66 |  |  |  | 
CC(C)C(=O)Oc1ccc(C(O)C(C)NC(C)(C)C)c2ccc(=O)[nH]c12 (stereo not shown) [(14), 8-isobutyryloxy-5-(1-hydroxy-2-tert-butylaminopropyl)carbostyril] | 3.86 | 48.3 | 3.92 | 0.47 | 12.3 |  |  |  |  |  | 
CCNC(CC)C(O)c1ccc(OC(=O)c2ccc(C)cc2)c2[nH]c(=O)ccc12.Cl (stereo not shown) [(9), 8-(4-methylbenzoyloxy)-5-(1-hydroxy-2-ethylaminobutyl)carbostyril hydrochloride] | 1.7 | 15.5 | 1.06 |  | 14.5 | 132000 | 0.16 |  |  |  | 
CCC(NC(C)C)C(O)c1ccc(OC(=O)C(C)C)c2nc(OC(=O)C(C)C)ccc12.Cl (stereo not shown) [(10), 2,8-diisobutyryloxy-5-(1-hydroxy-2-isopropylaminobutyl)quinoline hydrochloride] | 5.6 | 56.4 | 5.94 |  | 9.5 |  | 0.95 | exhibit a long-lasting β-stimulation activity on histamine-induced bronchospasm as compared with that of the comparative compound |  |  | 
CCC(NC(C)C)C(O)c1ccc(OC(=O)Cc2ccccc2)c2[nH]c(=O)ccc12.Cl (stereo not shown) [(7), 8-phenylacetoxy-5-(1-hydroxy-2-isopropylaminobutyl)carbostyril hydrochloride] | 1.39 |  |  |  |  |  | 0.17 |  |  |  | 
CCC(NC(C)C)C(OC(C)=O)c1ccc(OC(C)=O)c2[nH]c(=O)ccc12.Cl (stereo not shown) [(3), 8-acetoxy-5-(1-acetoxy-2-isopropylaminobutyl)carbostyril hydrochloride] | 4.5 | 64.4 | 5.85 |  | 11.0 | 112000 | 0.82 | exhibit a long-lasting β-stimulation activity on histamine-induced bronchospasm as compared with that of the comparative compound |  |  | 
CCNC(CC)C(O)c1ccc(OC(C)=O)c2[nH]c(=O)ccc12.Cl (stereo not shown) [(4), 8-acetoxy-5-(1-hydroxy-2-ethylaminobutyl)carbostyril hydrochloride] | 3.6 | 45.0 | 3.81 |  | 11.8 | 105000 | 0.61 | exhibit a long-lasting β-stimulation activity on histamine-induced bronchospasm as compared with that of the comparative compound |  |  | 
CCNC(CC)C(O)c1ccc(OC(=O)CC(C)C2CCCCC2)c2[nH]c(=O)ccc12.Cl (stereo not shown) [(5), 8-(3-cyclohexylbutyryloxy)-5-(1-hydroxy-2-ethylaminobutyl)carbostyril hydrochloride] | 6.5 | 65.4 | 5.15 |  | 12.7 |  | 0.67 |  |  |  | 
CC(C)NCC(O)c1ccc(O)c(O)c1 (stereo not shown) [Isoproterenol, reference compound] |  |  |  |  |  |  |  |  | 0.07 µg/kg and 0.10 µg/kg | 0.19 | 
CC(C)(C)NCC(O)c1ccc(O)c(CO)c1 (stereo not shown) [Salubutamol (1), Salbutamol, reference compound] | 2.8 | 45.9 | 6.1 |  | 7.52 |  |  |  |  |  | 0.52
COc1ccc(CCNCC(OC(=O)C2CC2)c2ccc(OC(=O)C3CC3)c3[nH]c(=O)ccc23)cc1OC (stereo not shown) [(8), 8-cyclopropylcarbonyloxy)-5-[1-cyclopropylcarbonyloxy-2-(3,4-dimethoxyphenethylamino)ethyl]carbostyril hydrochloride] | 4.81 | 68.7 | 4.64 | 0.51 | 14.8 | 123000 |  |  |  |  | 
